This note sets out measurements from a melting point compilation (Tetko et al.; mined from patent text by program, amines drawn as free bases though some values may be those of a salt).

One may read the melting point as the temperature of the solid-liquid transition.

The molecule `Cc1c(Cl)cc(C(=O)O)c(Cl)c1[N+](=O)[O-]` gave a melting point of 210 to 218 °C.
On to `NC(=O)c1csc(-c2cc3c(Oc4ccc(Cl)cc4)cncc3s2)n1`, for which the melting point was 215 to 218 °C.
The result for `CCCCNC(=O)Cc1ccc2c(c1)c(Cc1ccc(C(=O)O)cc1OC)cn2C` reads 92 to 95 °C; that for `O=C(NCc1ccccc1)C1c2ccccc2-c2ccccc21`, 195 to 200 °C; that for `N#Cc1ccccc1Sc1ccccc1N`, 86 to 89 °C.
For `Nc1ccc(Cl)c(Cl)c1Br` the value was 78 to 80 °C; for `Cn1c2c(c(=O)n(-c3ccc(Cl)c(C(=O)OC(C)(C)C)c3)c1=O)CCC2`, 189 to 191 °C.
`ClCCCCOc1ccc(C2c3ccc(OCc4ccccc4)cc3OCC2c2ccccc2)cc1` (configuration not stated) returned a melting point of 94 to 97.5 °C.
For `COc1cc(CN2CCN(C(=O)c3cc4ccccc4oc3=O)CC2)cc(OC)c1OC` the value was 171 to 173 °C.
Consider `OCC1OC(n2c(Br)nc3cc(Cl)c(Cl)cc32)CC1O` (configuration not stated), for which the melting point was in the range of 187 to 188 °C.
With `COC(=O)c1cc2cc(OC)c(OC)cc2c(-c2ccnc(N3C(=O)CCc4ccccc43)c2)c1C(=O)OC`, the melting point was in the range of 229 to 233 °C.
For `O=C(NCCO)/C(=C/c1ccc(C2CC2)cc1)NC(=O)c1ccc(OCCc2ccccc2)cc1` the value was 113 to 115 °C; for `O=C(O)CCc1cn(Cc2ccc(OCc3cncc(-c4ccccc4)c3)cc2)nc1-c1ccccc1`, 161 to 162 °C; for `CN(C)C(=O)CCC(=O)NC1CCC(CCN2CCN(c3nccc4c3CCO4)CC2)CC1` (configuration not stated), 188 °C.
Consider `COc1ccc(N(C)CCCOc2ccc3ccccc3c2)cc1`, for which the melting point stood at 112 °C.
Molecule `N#CC(Cl)Cc1ccccc1C(=O)O` (configuration not stated) yielded a melting point of 116 to 117 °C.
For the molecule `CCOP(=O)(/C=C/c1ccc2cc(NC(=O)c3cccnc3)cc(-c3cccc4ccccc34)c2n1)OCC`, the melting point lay in the range of 216 to 217 °C.
The result for `O=C(NCc1ccccn1)c1cc(N2CCN(Cc3ccc(F)cc3)C2=O)n[nH]1` reads 235 to 237 °C.
In turn, `CCONC(O)(CC)C1C(=O)C=C(CC)OC1=O` (configuration not stated) gave a melting point of 63 to 64 °C.
Molecule `CCCCn1nc(C)c(C(=O)OC)c1Cc1ccc(-c2ccccc2S(N)(=O)=O)cc1` registered a melting point of 49 to 54 °C.
As to `CCS(=O)(=O)N(CC(=O)Nc1ccncc1)C1CC(C)(C)Oc2ccc(F)cc21` (configuration not stated), the melting point was 195 °C.
With `CCC(C)(C)c1cc(-c2cc(F)cc(C=C3SC(N4CCOCC4)=NC3=O)c2)ccc1O`, the melting point lay in the range of 210 to 212 °C.
For `O=C(NCc1ccccn1)c1cc(OCC(F)(F)F)ccc1OCc1ccccc1` the value was 115 to 116 °C.
The molecule `O=C1c2cc3nnn(CCCc4cccc(F)c4)c(=O)c3cc2OC2CCCN12` (configuration not stated) returned a melting point of 145 to 148 °C.
Regarding `CC(C)(C)OC(=O)N1CCC(c2nc3cc(-c4ccc(-c5nnn[nH]5)c(F)c4)ccc3o2)CC1`, the melting point fell in the range of 163 to 167 °C.
Regarding `CC(C)n1nc(-c2cc(C(=O)NCCN3CCOCC3)cnc2-c2ccccc2)ccc1=O`, the melting point lay in the range of 162 to 163 °C.
Molecule `O=C(O)C(=O)c1ccc(OCC(=O)N2CCC(c3ccccc3)CC2)cc1` showed a melting point of 209 to 210 °C.
In turn, `O=Cc1cccc(-c2cc(-c3ccc(C(F)(F)F)cc3)no2)c1` displayed a melting point of 151 to 152 °C.
Molecule `N#Cc1c(Cl)c2cc(F)ccc2n(Cc2ccccc2)c1=O` returned a melting point of 228 °C.
`CC1(C)CCC(C)(C)c2cc(OCc3ccc(C(=O)O)cc3)ccc21`: the melting point was greater than 330 °C.
The result for `CC(=O)OCC1OC(n2cc(Cc3ccc4occc4c3)c3c(Cl)cccc32)C(OC(C)=O)C(OC(C)=O)C1OC(C)=O` (configuration not stated) reads 186 to 188 °C.
`CS(=O)(=O)Nn1c(=O)[nH]c2cc(C(F)(F)F)c(N3CCC3)cc2c1=O`: the melting point was in the range of 266 to 283 °C.
With `N[C@@H](C[C@@H](CC#Cc1ccccc1)C(=O)O)C(=O)O`, the melting point fell in the range of 164 to 166 °C.
Regarding `CC(Nc1ccccc1O)=C1C(=O)OC(=O)C(C(=O)C=Cc2ccc(O)cc2)=C1O`, the melting point was in the range of 257 to 260 °C.
In turn, `O=C(O)CCCc1cc2nc(Cl)ccc2n1S(=O)(=O)c1ccc2nccnc2c1` yielded a melting point of 103 to 106 °C.
The result for `O=C(O)C(CCc1ccc2c(c1)CCO2)NC(=O)C(F)(F)F` (configuration not stated) reads 125 °C.
The molecule `N#CCN1CCC(N2CCN(CCCN3CCCCC3)C2=C(C#N)C#N)CC1` came in with a melting point of 135 to 136 °C.
For `Cc1ccc2c(c1)C(N(CCCCC(=O)O)S(C)(=O)=O)CC(C)(C)O2` (configuration not stated) the value was 190 to 195 °C; for `O=C(O)COc1c(-c2cccc(Cl)c2)cc(C(=O)NCCCC2CCCC2)cc1-c1cccc(C(F)(F)F)c1`, 173 to 175 °C.
`CSC(=C[N+](=O)[O-])NCCSCc1nccs1` displayed a melting point of 63 to 64 °C.
Regarding `CCOC(=O)Nc1ccc(C(=O)Nc2ccc3ccc(OC)nc3n2)cc1`, the melting point came to 200 °C.
The molecule `C/C(Cl)=C/CC(C)(C(=O)O)C(=O)O` yielded a melting point of 99 to 101 °C.
`Cc1c(NC(=O)CC(C)(C)C)c(C)c2c(c1-c1cncnc1)OCC2c1ccc(C(C)C)cc1` (configuration not stated): the melting point lay within 167 to 169 °C.
The result for `COCc1cc2c(N)cccc2cn1` reads 105 °C; that for `CC(=O)N(C(=NC1CCCCC1)ON=C(C)C)C1CCCCC1`, 74 to 78 °C.
`O=C(NCCSc1cccc2nccn12)c1ccccc1O` showed a melting point of 156 to 157 °C.
In turn, `CCOC(=O)CNC(=O)C(C)(C(C)C)C(C)C` showed a melting point of 74.5 to 75.5 °C.
For the molecule `COc1ccc(CSc2nnc(-c3ccn4ncnc4c3)o2)cc1C(F)(F)F`, the melting point is 178 to 179 °C.
Turning to `CC(=O)NCCCn1cc(-c2cc3nccnc3[nH]2)c2ccccc21`, the melting point was determined as 260 °C.
In the case of `CCC(C)(C)c1csc(C(C#N)=C(O)c2c(F)cccc2F)n1`, the melting point lay within 195 to 196 °C.
The molecule `CC(C)c1ccccc1NC(=N)Nc1cccc2ccccc12` gave a melting point of 175 to 177 °C.
For `O=C(O)C(CC1CCCC1)c1ccc(S(=O)(=O)C(F)(F)F)cc1` (configuration not stated) the value was 143 to 145 °C.
`Nc1ccccc1C(=O)N1Cc2ccccc2C(=O)N1` gave a melting point of 156 to 157 °C.
The result for `COC(=O)c1cccc(CC#N)c1[N+](=O)[O-]` reads 77 to 80 °C.
The result for `FC(F)(F)c1cccc2c(-c3ccccc3)c(-c3ccccc3)cnc12` reads 181 to 183 °C.
The molecule `Cc1ccccc1CNc1cc(C(=O)N(C)C)cc2c1nc(C)n2C` yielded a melting point of 158 to 159 °C.
Turning to `CCCCc1nc(C(=O)C(C)(C)C)c(C#N)n1Cc1ccc(-c2ccccc2-c2nnnn2C(c2ccccc2)(c2ccccc2)c2ccccc2)cc1`, the melting point lay within 103 to 105 °C.
As to `COC(=O)C=CC(=CN(C)C)C(=O)OC`, the melting point came out at 62 °C.
In turn, `COc1cc(CNC(=O)c2nc3cn(CCCc4ccccc4)nc3c(=O)[nH]2)ccc1F` had a melting point of 137 to 140 °C.
The result for `Cc1ccc(CC(C(N)=O)c2ccccc2)cc1` (configuration not stated) reads 150 to 151 °C; that for `Cc1cc(CCC(=O)O)nc(-c2nc(=O)c3ccc(Cl)cc3s2)c1`, 232 to 233 °C.
Molecule `O=C1CCCN1C(=O)c1ccc(OCc2ccccc2)cc1` showed a melting point of 115 to 117 °C.
